According to US9533999B2, “Fused thiazin-3-ones as KCA3.1 inhibitors” (Boehringer Ingelheim International GmbH, priority 2012, dated 2017):
pIC50: −log10 of the molar value.

target: human KCa3.1 (Homo sapiens (Human), UniProt O15554); test: KCa3.1 Assay (FLIPR thallium influx); assay type: cell-based; details: HEK293 cells over-expressing human KCa3.1; Tl+ influx, FLIPR dye; 15 min compound treatment
Procedure: HEK293 cells over-expressing human KCa3.1 are used to measure the effects of compounds in inhibiting the KCa3.1 channel function. The assay is based on measuring the influx of Tl^+ through KCa3.1 using a FLIPR dye assay (FLIPR Potassium Ion Channel Assay Kit #R8154 by Molecular Devices). The day before the assay HEK293/KCa3.1 cells are seeded on a 384 well plate. On the day of the assay, media is removed and replaced with Molecular Devices Potassium Ion Channel dye then incubated for 1 hour according to manufacturer's recommendations. The cells are then treated with compounds or DMSO control for 15 min, followed by addition of thallium (final concentration=1.5 mM) and ionomycin (final concentration=1 uM). The plate is read on HAMAMATSU […] measuring fluorescence signal for 50 seconds using (Em: 565-625 nm). Data analysis: HAMAMATSU 6000 data are exported using max-min value for frame 10 and 40 and corrected by spatial uniformity correction. Percent of control (POC) is calculated as 100×(max-minFlsample−max-minFllow)/(max-minFlhi−max-minFllow). Max-min Flsample is max-min value of each sample well containing test compound. Max-min Fllow is average max-min value of wells containing reference inhibitory compound. Max-min Flhi is average max-min value of wells containing DMSO. IC50 values are determined by nonlinear curve fitting of the data from a duplicate 11-point concentration-response curve.

SMILES	pIC50
O=C1CS(=O)(=O)c2cccnc2N1Cc1cccc(C(F)(F)F)c1 [Compound I-1]	6.54
CC(c1cccc(C(F)(F)F)c1)N1C(=O)CS(=O)(=O)c2cccnc21 (stereo not shown) [Compound I-2]	6.92
O=C1CS(=O)(=O)c2cccnc2N1Cc1ccc(Cl)c(C(F)(F)F)c1 [Compound I-3]	6.74
CC(c1ccc(Cl)c(C(F)(F)F)c1)N1C(=O)CS(=O)(=O)c2cccnc21 (stereo not shown) [Compound I-4]	6.85
O=C1CS(=O)(=O)c2cccnc2N1Cc1ccc(F)c(OC(F)(F)F)c1 [Compound I-5]	7.31
O=C1CS(=O)(=O)c2cccnc2N1CCc1ccccc1C(F)(F)F [Compound I-6]	5.30
O=C1CS(=O)(=O)c2cccnc2N1CCc1cccc(C(F)(F)F)c1 [Compound I-7]	6.46
CC(c1cc(C(F)(F)F)ccn1)N1C(=O)CS(=O)(=O)c2cccnc21 (stereo not shown) [Compound I-8]	5.72
CC(c1cccc(C(F)(F)F)c1)N1C(=O)CS(=O)(=O)c2cc(Cl)cnc21 (stereo not shown) [Compound I-9]	6.96
O=C1CS(=O)(=O)c2cc(Cl)cnc2N1Cc1ccc(Cl)c(C(F)(F)F)c1 [Compound I-10]	6.74
O=C1CS(=O)(=O)c2cccnc2N1Cc1ccc(Cl)c(OC(F)(F)F)c1 [Compound I-12]	7.11
O=C1CS(=O)(=O)c2cccnc2N1Cc1ccc(Cl)c(S(=O)(=O)C(F)(F)F)c1 [Compound I-13]	6.08
O=C1CS(=O)(=O)c2cc(Cl)cnc2N1Cc1ccc(F)c(OC(F)(F)F)c1 [Compound I-15]	7.04
O=C1CS(=O)(=O)c2cccnc2N1CCc1cccc(Cl)c1 [Compound I-16]	5.70
COC(=O)c1ccc2c(n1)N(Cc1ccc(F)c(OC(F)(F)F)c1)C(=O)CS2(=O)=O [Compound I-18]	7.06
CC(c1cccc(C(F)(F)F)c1)N1C(=O)CS(=O)(=O)c2ccc(C(=O)N(C)C)nc21 (stereo not shown) [Compound I-19]	5.66
NC(=O)c1ccc2c(n1)N(Cc1ccc(Cl)c(C(F)(F)F)c1)C(=O)CS2(=O)=O [Compound I-20]	6.31
CC(c1cccc(C(F)(F)F)c1)N1C(=O)CS(=O)(=O)c2ncc(Br)cc21 (stereo not shown) [Compound I-21]	6.62
C[C@@H](c1cccc(C(F)(F)F)c1)N1C(=O)CS(=O)(=O)c2nccnc21 [Compound I-22, 1,1-dioxo-4-[(S)-1-(3-trifluoromethyl-phenyl)-ethyl]-1,4-dihydro-2H-11ambda*6*-pyrazino[2,3-b][1,4]thiazin-3-one]	5.96
O=C1CS(=O)(=O)c2nccnc2N1Cc1ccc(F)c(OC(F)(F)F)c1 [Compound I-23]	6.77
O=C1CS(=O)(=O)c2nccnc2N1Cc1cccc(C(F)(F)F)c1 [Compound I-24]	5.59

SMILES	pIC50
O=C1CS(=O)(=O)c2ncsc2N1Cc1cccc(C(F)(F)F)c1 [Compound I-25, 4,4-dioxo-7-(3-trifluoromethyl-benzyl)-4,7-dihydro-5H-41ambda*6*-thiazolo[4,5-b][1,4]thiazin-6-one]	5.43
O=C1CS(=O)(=O)c2ncsc2N1Cc1ccc(F)c(OC(F)(F)F)c1 [Compound I-26]	6.29
Cc1nc2c(s1)N(Cc1ccc(F)c(OC(F)(F)F)c1)C(=O)CS2(=O)=O [Compound I-27]	6.51
Cc1nc2c(s1)N(Cc1cccc(C(F)(F)F)c1)C(=O)CS2(=O)=O [Compound I-28]	5.40
Cc1nc2c(s1)N(Cc1cccc(OC(F)(F)F)c1)C(=O)CS2(=O)=O [Compound I-29]	5.62
O=C1CS(=O)(=O)c2nc(C3CC3)sc2N1Cc1cccc(C(F)(F)F)c1 [Compound I-30]	5.37
O=C1CS(=O)(=O)c2ncsc2N1Cc1cccc(OC(F)(F)F)c1 [Compound I-31]	5.66
CC(c1cccc(C(F)(F)F)c1)N1C(=O)CS(=O)(=O)c2ncsc21 (stereo not shown) [Compound I-32]	6.00
O=C1CS(=O)(=O)c2scnc2N1Cc1ccc(F)c(OC(F)(F)F)c1 [Compound I-33]	6.96
CC(C)c1nc2c(s1)S(=O)(=O)CC(=O)N2Cc1ccc(F)c(OC(F)(F)F)c1 [Compound I-34]	7.02
CC(C)c1nc2c(s1)S(=O)(=O)CC(=O)N2Cc1cccc(C(F)(F)F)c1 [Compound I-35]	6.62
CC(C)c1nc2c(s1)S(=O)(=O)CC(=O)N2Cc1cccc(OC(F)(F)F)c1 [Compound I-36]	6.42
Cc1nc2c(s1)S(=O)(=O)CC(=O)N2Cc1cccc(C(F)(F)F)c1 [Compound I-37]	6.64
CC(c1cccc(C(F)(F)F)c1)N1C(=O)CS(=O)(=O)c2ccsc21 (stereo not shown) [Compound I-38]	7.15
O=C1CS(=O)(=O)c2ccsc2N1Cc1ccc(F)c(OC(F)(F)F)c1 [Compound I-39]	7.41
O=C1CS(=O)(=O)c2sccc2N1Cc1ccc(F)c(OC(F)(F)F)c1 [Compound I-40]	7.32
COC(=O)c1cc2c(s1)S(=O)(=O)CC(=O)N2Cc1cccc(C(F)(F)F)c1 [Compound I-41]	6.72
COC(=O)c1cc2c(s1)S(=O)(=O)CC(=O)N2Cc1cccc(OC(F)(F)F)c1 [Compound I-42]	6.82
COC(=O)c1cc2c(s1)S(=O)(=O)CC(=O)N2C(C)c1cccc(C(F)(F)F)c1 (stereo not shown) [Compound I-43]	6.92
O=C1CSc2cccnc2N1Cc1cccc(OC(F)(F)F)c1 [II-1, 4-(3-trifluoromethoxy-benzyl)-4H-pyrido[3,2-b][1,4]thiazin-3-one]	7.28
O=C1CSc2ncsc2N1Cc1cccc(C(F)(F)F)c1 [II-2, 7-(3-trifluoromethyl-benzyl)-7H-thiazolo[4,5-b][1,4]thiazin-6-one]	6.49

The remaining lines, values ahead:

pIC50	SMILES
6.74	NC(=O)c1ccc2c(n1)N(Cc1ccc(Cl)c(C(F)(F)F)c1)C(=O)CS2 [II-3]
7.39	CC(c1cccc(C(F)(F)F)c1)N1C(=O)CSc2cccnc21 (stereo not shown) [II-4]
7.34	O=C1CSc2cccnc2N1Cc1ccc(Cl)c(C(F)(F)F)c1 [II-5]
5.44	CC(c1cc(C(F)(F)F)nn1C)N1C(=O)CSc2cccnc21 (stereo not shown) [II-6]
7.28	O=C1CSc2cccnc2N1Cc1ccc(Cl)c(SC(F)(F)F)c1 [II-7]
7.33	O=C1CSc2cccnc2N1Cc1ccc(Cl)c(S(=O)(=O)C(F)(F)F)c1 [II-8]
6.89	O=C1CSc2cc(Cl)cnc2N1Cc1ccc(F)c(OC(F)(F)F)c1 [II-9]
6.51	O=C1CSc2cccnc2N1Cc1cccc(Br)c1 [II-10]
7.18	O=C1CSc2ccc(CO)nc2N1Cc1ccc(Cl)c(C(F)(F)F)c1 [II-11]
6.59	Cc1nc2c(s1)N(Cc1cccc(OC(F)(F)F)c1)C(=O)CS2 [II-12]
6.80	O=C1CSc2ncsc2N1Cc1cccc(OC(F)(F)F)c1 [II-13]
5.80	O=C1CSc2nc(C3CC3)sc2N1Cc1cccc(C(F)(F)F)c1 [II-14]
6.31	Cc1nc2c(s1)N(Cc1cccc(C(F)(F)F)c1)C(=O)CS2 [II-15]
6.77	CC(c1cccc(C(F)(F)F)c1)N1C(=O)CSc2ncsc21 (stereo not shown) [II-16]
7.22	O=C1CSc2ncsc2N1Cc1ccc(F)c(OC(F)(F)F)c1 [II-17]
6.60	CC(C)c1nc2c(s1)SCC(=O)N2Cc1ccc(F)c(OC(F)(F)F)c1 [II-18]
6.47	CC(C)c1nc2c(s1)SCC(=O)N2Cc1cccc(C(F)(F)F)c1 [II-19]
6.29	CC(C)c1nc2c(s1)SCC(=O)N2Cc1cccc(OC(F)(F)F)c1 [II-20]
6.40	CC(C)c1nc2c(s1)SCC(=O)N2C(C)c1cccc(C(F)(F)F)c1 (stereo not shown) [II-21]
7.14	Cc1nc2c(s1)SCC(=O)N2Cc1cccc(C(F)(F)F)c1 [II-22]
7.17	Cc1nc2c(s1)SCC(=O)N2C(C)c1cccc(C(F)(F)F)c1 (stereo not shown) [II-23]

tested on: aortas of ApoE−/− mice; test: not given; details: cited from earlier work

SMILES	development of atherosclerosis
Clc1ccccc1C(c1ccccc1)(c1ccccc1)n1cccn1 [TRAM-34]	significantly reduces the development of atherosclerosis
Clc1ccccc1C(c1ccccc1)(c1ccccc1)n1ccnc1 [clotrimazole]	significantly reduces the development of atherosclerosis

tested on: C57BL/6 mice; test: not given; details: MOG35-55 peptide induced; cited from earlier work

SMILES	inhibition in EAE model
Clc1ccccc1C(c1ccccc1)(c1ccccc1)n1cccn1 [TRAM-34]	inhibits

tested on: mice; test: not given; details: UUO-induced, treated mice; cited from earlier work

SMILES	progression of renal fibrosis
Clc1ccccc1C(c1ccccc1)(c1ccccc1)n1cccn1 [TRAM-34]	attenuated progression of renal fibrosis
